Source: ChEMBL document CHEMBL5226381, “Iterative Methylation Leads to 3-Methylchuangxinmycin Production in Actinoplanes tsinanensis CPCC 200056” (2023)
Converted amounts (≈) assume the structure as drawn. The source made the active and inactive calls. No cut-off for these calls is given here.

Columns and labels:
[1] = system: Mycobacterium tuberculosis; assay: Antitubercular activity against Mycobacterium tuberculosis H37Rv assessed as inhibition of bacterial growth incubated for 7 to 10 days by Alamar Blue staining based analysis; format: functional; details: time 7-10 day
[2] = system: Mycobacterium tuberculosis; assay: Antitubercular activity against INH/RIF-sensitive Mycobacterium tuberculosis clinical isolate S17 assessed as inhibition of bacterial growth incubated for 7 to 10 days by Alamar Blue staining based analysis; format: functional; details: time 7-10 day
[3] = system: Mycobacterium tuberculosis; assay: Antitubercular activity against INH/RIF-sensitive Mycobacterium tuberculosis clinical isolate S23 assessed as inhibition of bacterial growth incubated for 7 to 10 days by Alamar Blue staining based analysis; format: functional; details: time 7-10 day
Klebsiella pneumoniae [4] = assay: Antibacterial activity against Klebsiella pneumoniae ATCC 700603 assessed as inhibition of bacterial growth incubated for 18 hrs by agar dilution method; format: functional, organism-based
Klebsiella pneumoniae [5] = assay: Antibacterial activity against Klebsiella pneumoniae ATCC BAA-2146 assessed as inhibition of bacterial growth incubated for 18 hrs by agar dilution method; format: functional, organism-based
Pseudomonas aeruginosa = assay: Antibacterial activity against Pseudomonas aeruginosa ATCC 27853 assessed as inhibition of bacterial growth incubated for 18 hrs by agar dilution method; format: functional, organism-based
Acinetobacter baumannii = assay: Antibacterial activity against Acinetobacter baumannii ATCC 19606 assessed as inhibition of bacterial growth incubated for 18 hrs by agar dilution method; format: functional, organism-based
Enterobacter cloacae = assay: Antibacterial activity against Enterobacter cloacae ATCC 43560 assessed as inhibition of bacterial growth incubated for 18 hrs by agar dilution method; format: functional, organism-based
Klebsiella aerogenes = assay: Antibacterial activity against Enterobacter aerogenes ATCC 13048 assessed as inhibition of bacterial growth incubated for 18 hrs by agar dilution method; format: functional, organism-based
[6] = system: Praffidenbacterium reggii; assay: Antibacterial activity against […] ATCC 31052 assessed as inhibition of bacterial growth incubated for 18 hrs by agar dilution method; format: functional
Serratia marcescens = assay: Antibacterial activity against Serratia marcescens ATCC 21074 assessed as inhibition of bacterial growth incubated for 18 hrs by agar dilution method; format: functional, organism-based
Shigella flexneri = assay: Antibacterial activity against Shigella flexneri ATCC 12022 assessed as inhibition of bacterial growth incubated for 18 hrs by agar dilution method; format: functional, organism-based
[7] = system: Stenotrophomonas maltophilia; assay: Antibacterial activity against Pseudomonas maltophilia ATCC 13636 assessed as inhibition of bacterial growth incubated for 18 hrs by agar dilution method; format: functional, organism-based
Proteus mirabilis = assay: Antibacterial activity against Proteus mirabilis ATCC 49565 assessed as inhibition of bacterial growth incubated for 18 hrs by agar dilution method; format: functional, organism-based
Escherichia coli [8] = assay: Antibacterial activity against Escherichia coli ATCC 25922 assessed as inhibition of bacterial growth incubated for 18 hrs by agar dilution method; format: functional, organism-based
Escherichia coli [9] = assay: Antibacterial activity against Escherichia coli ATCC 35218 assessed as inhibition of bacterial growth incubated for 18 hrs by agar dilution method; format: functional, organism-based
Escherichia coli [10] = assay: Antibacterial activity against Escherichia coli ATCC 2469 assessed as inhibition of bacterial growth incubated for 18 hrs by agar dilution method; format: functional, organism-based
Escherichia coli [11] = assay: Antibacterial activity against Escherichia coli 16-1 assessed as inhibition of bacterial growth incubated for 18 hrs by agar dilution method; format: functional, organism-based

Row | Compound | MIC [1] [µg/mL] | MIC [2] [µg/mL] | MIC [3] [µg/mL] | Activity (Klebsiella pneumoniae [4]) | Activity (Klebsiella pneumoniae [5]) | Activity (Pseudomonas aeruginosa) | Activity (Acinetobacter baumannii) | Activity (Enterobacter cloacae) | Activity (Klebsiella aerogenes) | Activity [6] | Activity (Serratia marcescens) | Activity (Shigella flexneri) | Activity [7] | Activity (Proteus mirabilis) | Activity (Escherichia coli [8]) | Activity (Escherichia coli [9]) | Activity (Escherichia coli [10]) | Activity (Escherichia coli [11])
1 | O=C(O)[C@H]1Cc2c[nH]c3cccc(c23)S1 | 4 (≈ 18.2 µM) | 0.78 (≈ 3.56 µM) | 0.78 (≈ 3.56 µM) | – | – | – | – | – | – | – | – | – | – | – | – | – | – | –
2 | CC1(C)c2c[nH]c3cccc(c23)S[C@H]1C(=O)O | 32 (≈ 129 µM) | 50 (≈ 202 µM) | 12.5 (≈ 50.5 µM) | inactive | inactive | inactive | inactive | inactive | inactive | inactive | inactive | inactive | inactive | inactive | inactive | inactive | inactive | inactive
3 | C[C@H]1c2c[nH]c3cccc(c23)S[C@H]1C(=O)O [CHUANGXINMYCIN] | 1 (≈ 4.29 µM) | 0.78 (≈ 3.34 µM) | 0.78 (≈ 3.34 µM) | inactive | inactive | inactive | inactive | inactive | inactive | inactive | inactive | – | inactive | inactive | inactive | inactive | inactive | inactive
4 | NNC(=O)c1ccncc1 [ISONIAZID] | 0.06 (≈ 0.438 µM) | 0.125 (≈ 0.911 µM) | 0.125 (≈ 0.911 µM) | – | – | – | – | – | – | – | – | – | – | – | – | – | – | –
5 | CO[C@H]1/C=C/O[C@@]2(C)Oc3c(C)c(O)c4c(O)c(c(/C=N/N5CCN(C)CC5)c(O)c4c3C2=O)NC(=O)/C(C)=C\C=C\[C@H](C)[C@H](O)[C@@H](C)[C@@H](O)[C@@H](C)[C@H](OC(C)=O)[C@@H]1C [RIFAMPIN] | 0.25 (≈ 0.304 µM) | 0.25 (≈ 0.304 µM) | 0.25 (≈ 0.304 µM) | – | – | – | – | – | – | – | – | – | – | – | – | – | – | –
